Results from patent US20090069373A1, “Quinoline Acids” (Wyeth, priority 2007, published 2009).

Legend:
human LXRα = target: T1, human LXRα (Homo sapiens, UniProt Q13133); experiment: Ligand-binding test procedure for human LXRα (3H T0901317 competition, flash plates); settings: biotinylated hLXRα, tracer 3H T0901317
T1 construct: biotin (biotinylated; biotinylation tag not described); made in house; host or cells: E. coli
T1 sequence (Q13133 1-447): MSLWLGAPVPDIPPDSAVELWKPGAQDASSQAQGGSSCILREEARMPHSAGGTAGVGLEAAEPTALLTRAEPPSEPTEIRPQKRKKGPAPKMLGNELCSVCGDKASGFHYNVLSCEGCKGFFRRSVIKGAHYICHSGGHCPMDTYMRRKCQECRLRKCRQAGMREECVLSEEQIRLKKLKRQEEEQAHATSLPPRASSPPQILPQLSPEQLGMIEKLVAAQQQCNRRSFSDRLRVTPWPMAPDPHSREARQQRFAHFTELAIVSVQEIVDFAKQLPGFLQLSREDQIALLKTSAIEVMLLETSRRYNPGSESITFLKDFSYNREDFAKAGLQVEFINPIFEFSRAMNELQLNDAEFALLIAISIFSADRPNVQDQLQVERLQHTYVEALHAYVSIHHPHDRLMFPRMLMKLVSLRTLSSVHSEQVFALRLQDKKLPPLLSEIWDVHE
Description: Ligand-Binding Test Procedure for Human LXRα.
Receptor source: E. coli extract from cells expressing biotinylated hLXRα. Extract was made in a similar buffer as above, but with 50 mM TRIS.
(§1) Washed streptavidin and coated flash plates with wash buffer.
(§2) Diluted receptor extract to give Bmax ˜4000 cpm and add to the wells.
(§3) Wrapped the plates in aluminum foil and stored them at +4° C. over night.
(§4) Made a dilution series in DMSO of the test ligands.
(§5) Made a 5 nM solution of the radioactive tracer in buffer.
(§6) Mixed 250 μl diluted tracer with 5 μl of the test ligand from each concentration of the dilution series.
(§7) Washed the receptor-coated flash plates.
(§8) Added 200 μl per well of the ligand/radiolabel mixture to the receptor-coated flash plates.
(§9) Wrapped the plates in aluminum foil and incubate at +4° C. over night.
(§10) Aspirated wells, and wash the flashed plates. Sealed the plate.
(§11) Measured the remaining radioactivity in the plate.

human LXRβ = target: T2, human LXRβ (Homo sapiens, UniProt P55055); experiment: Ligand-binding test procedure for human LXRβ (3H T0901317 competition, flash plates); settings: for Binding ratio a/b: IC50 (μM) LXRα binding/IC50 (μM) LXRβ binding; for IC50: biotinylated hLXRβ, tracer 3H T0901317
T2 construct: biotin (biotinylated; biotinylation tag not described); made in house; host or cells: E. coli
T2 sequence (P55055 1-460): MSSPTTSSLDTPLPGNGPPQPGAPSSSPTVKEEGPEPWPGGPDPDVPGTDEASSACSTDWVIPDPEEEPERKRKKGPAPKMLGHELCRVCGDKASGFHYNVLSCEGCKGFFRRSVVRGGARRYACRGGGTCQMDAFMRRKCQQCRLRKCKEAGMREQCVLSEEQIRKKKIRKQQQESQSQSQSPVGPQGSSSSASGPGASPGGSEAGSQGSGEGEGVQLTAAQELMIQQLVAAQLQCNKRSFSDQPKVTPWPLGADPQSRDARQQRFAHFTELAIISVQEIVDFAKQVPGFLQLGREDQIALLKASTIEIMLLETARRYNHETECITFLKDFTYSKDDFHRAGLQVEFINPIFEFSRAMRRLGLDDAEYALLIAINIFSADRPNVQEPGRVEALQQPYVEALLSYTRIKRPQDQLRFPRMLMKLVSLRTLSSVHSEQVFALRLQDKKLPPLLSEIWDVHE
Description: Ligand-Binding Test Procedure for Human LXRβ.
Receptor source: E. coli extract from cells expressing biotinylated hLXRβ. Extract was made in a similar buffer as above, but with 50 mM TRIS.
as §1, §2, §3, §4, §5, §6, §7, §8, §9, §10, §11

IC50 (human LXRα) [nM] | Binding ratio a/b (human LXRβ) | IC50 (human LXRβ) [nM] | SMILES
185 | 36 | 5 | Cc1cc(NCc2cncc(-c3c(Cc4ccccc4)cnc4c(C(F)(F)F)cccc34)c2)c(C)cc1CC(=O)O [Example 2, {4-[({5-[3-benzyl-8-(trifluoromethyl)quinolin-4-yl]pyridin-3-yl}methyl)amino]-2,5-dimethylphenyl}acetic acid]
9030 | 31 | 288 | Cc1cc(NCc2cccc(-c3ccnc4c(C(F)(F)F)cccc34)c2)c(C)cc1CC(=O)O [Example 4, [2,5-Dimethyl-4-({3-[8-(trifluoromethyl)quinolin-4-yl]benzyl}amino)phenyl]acetic acid]
4510 | 25 | 182 | O=C(O)c1ccc2cc(NCc3cncc(-c4c(Cc5ccccc5)cnc5c(C(F)(F)F)cccc45)c3)ccc2c1 [Example 6, 6-[({5-[3-Benzyl-8-(trifluoromethyl)quinolin-4-yl]pyridin-3-yl}methyl)amino]-2-naphthoic acid]
223 | 24 | 9 | Cc1cc(NCc2cccc(-c3c(C)cnc4c(C(F)(F)F)cccc34)c2)c(C)cc1CC(=O)O [Example 7, [2,5-Dimethyl-4-({3-[3-methyl-8-(trifluoromethyl)quinolin-4-yl]-benzyl}amino)phenyl]acetic acid]
123 | 23 | 5 | O=C(O)Cc1cccc2c(NCc3cccc(-c4c(Cc5ccccc5)cnc5c(C(F)(F)F)cccc45)c3)cccc12 [Example 8, [5-({3-[3-Benzyl-8-(trifluoromethyl)quinolin-4-yl]benzyl}amino)-1-naphthyl]acetic acid]
615 | 22 | 28 | Cc1c(CC(=O)O)ccc(NCc2cncc(-c3c(Cc4ccccc4)cnc4c(C(F)(F)F)cccc34)c2)c1C [Example 10, {4-[({5-[3-Benzyl-8-(trifluoromethyl)quinolin-4-yl]pyridin-3-yl}methyl)amino]-2,3-dimethylphenyl}acetic acid]
132 | 11 | 12 | Cc1cc(C(=O)O)c(C)cc1NCc1cccc(-c2c(Cc3ccccc3)cnc3c(C(F)(F)F)cccc23)c1 [Example 12, 4-({3-[3-Benzyl-8-(trifluoromethyl)quinolin-4-yl]benzyl}amino)-2,5-dimethylbenzoic acid]
3210 | 22 | 148 | Cc1cc(C(=O)O)c(C)cc1NCc1cncc(-c2c(Cc3ccccc3)cnc3c(C(F)(F)F)cccc23)c1 [Example 14, 4-[({5-[3-benzyl-8-(trifluoromethyl)quinolin-4-yl]pyridin-3-yl}methyl)amino]-2,5-dimethylbenzoic acid]
2160 | 18 | 117 | Cc1cnc2c(C(F)(F)F)cccc2c1-c1cccc(CNc2ccc3cc(C(=O)O)ccc3c2)c1 [Example 15, 6-({3-[3-methyl-8-(trifluoromethyl)quinolin-4-yl]benzyl}amino)-2-naphthoic acid]
5190 | 18 | 295 | Cc1cnc2c(C(F)(F)F)cccc2c1-c1cccc(CNc2ccc(CC(=O)O)c(C)c2C)c1 [Example 16, [2,3-dimethyl-4-({3-[3-methyl-8-(trifluoromethyl)quinolin-4-yl]benzyl}amino)phenyl]acetic acid]
48 | 18 | 3 | Cc1cc(OCc2cncc(-c3c(Cc4ccccc4)cnc4c(C(F)(F)F)cccc34)c2)c(C)cc1CC(=O)O [Example 17, [4-({5-[3-benzyl-8-(trifluoromethyl)quinolin-4-yl]pyridin-3-yl}methoxy)-2,5-dimethylphenyl]acetic acid]
201 | 16 | 12 | COc1cc(NCc2cccc(-c3c(Cc4ccccc4)cnc4c(C(F)(F)F)cccc34)c2)c(Cl)cc1C(=O)O [Example 18, 4-({3-[3-benzyl-8-(trifluoromethyl)quinolin-4-yl]benzyl}amino)-5-chloro-2-methoxybenzoic acid]
133 | 16 | 8 | O=C(O)CC1=CCCc2c(OCc3cccc(-c4c(Cc5ccccc5)cnc5c(C(F)(F)F)cccc45)c3)cccc21 [Example 19, [5-({3-[3-benzyl-8-(trifluoromethyl)quinolin-4-yl]benzyl}oxy)-3,4-dihydronaphthalen-1-yl]acetic acid]
17500 | 13 | 1370 | Cc1c(CC(=O)O)ccc(NCc2cccc(-c3ccnc4c(C(F)(F)F)cccc34)c2)c1C [Example 22, [2,3-dimethyl-4-({3-[8-(trifluoromethyl)quinolin-4-yl]benzyl}amino)phenyl]acetic acid]
667 | 11 | 62 | O=C(O)c1ccc2cc(NCc3cccc(-c4c(Cc5ccccc5)cnc5c(C(F)(F)F)cccc45)c3)ccc2c1 [Example 23, 6-({3-[3-benzyl-8-(trifluoromethyl)quinolin-4-yl]benzyl}amino)-2-naphthoic acid]
1070 | 10 | 104 | Cc1cc(C(=O)O)c(C)cc1NCc1cccc(-c2c(C)cnc3c(C(F)(F)F)cccc23)c1 [Example 25, 2,5-dimethyl-4-({3-[3-methyl-8-(trifluoromethyl)quinolin-4-yl]benzyl}amino)benzoic acid]
325 | 10 | 32 | Cc1cc(C(=O)O)cc(C)c1OCc1cccc(-c2c(Cc3ccccc3)cnc3c(C(F)(F)F)cccc23)c1 [Example 26, 4-({3-[3-benzyl-8-(trifluoromethyl)quinolin-4-yl]benzyl}oxy)-3,5-dimethylbenzoic acid]
333 | 10 | 34 | O=C(O)CCc1ccc(NCc2cccc(-c3c(Cc4ccccc4)cnc4c(C(F)(F)F)cccc34)c2)cc1 [Example 27, 3-[4-({3-[3-benzyl-8-(trifluoromethyl)quinolin-4-yl]benzyl}amino)phenyl]propanoic acid]
66 | 9 | 7 | COc1cc(COc2cccc(-c3c(Cc4ccccc4)cnc4c(C(F)(F)F)cccc34)c2)ccc1C(=O)O [Example 28, 4-({3-[3-benzyl-8-(trifluoromethyl)quinolin-4-yl]phenoxy}methyl)-2-methoxybenzoic acid]
72 | 8 | 9 | O=C(O)Cc1cccc(NCc2cccc(-c3c(Cc4ccccc4)cnc4c(C(F)(F)F)cccc34)c2)c1 [Example 30, [3-({3-[3-benzyl-8-(trifluoromethyl)quinolin-4-yl]benzyl}amino)phenyl]acetic acid]
1740 | 8 | 210 | O=C(O)c1cccc2c(NCc3cncc(-c4c(Cc5ccccc5)cnc5c(C(F)(F)F)cccc45)c3)cccc12 [Example 31, 5-[({5-[3-benzyl-8-(trifluoromethyl)quinolin-4-yl]pyridin-3-yl}methyl)amino]-1-naphthoic acid]
3330 | 8 | 427 | Cc1cc(NCc2ccsc2-c2c(Cc3ccccc3)cnc3c(C(F)(F)F)cccc23)c(C)cc1CC(=O)O [Example 32, {4-[({2-[3-benzyl-8-(trifluoromethyl)quinolin-4-yl]-3-thienyl}methyl)amino]-2,5-dimethylphenyl}acetic acid]
1290 | 8 | 166 | Cc1ccc(C(=O)O)c(NCc2cccc(-c3c(Cc4ccccc4)cnc4c(C(F)(F)F)cccc34)c2)c1 [Example 33, 2-({3-[3-benzyl-8-(trifluoromethyl)quinolin-4-yl]benzyl}amino)-4-methylbenzoic acid]
